In ChEMBL document CHEMBL1201862, “PubChem BioAssay data set” (2004):
The source made the active and inactive calls.

Key:
Phospholipase A2 = Phospholipase A2 (Homo sapiens, UniProt P04054); format: functional;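 note: confirmatory dose-response counterscreen on phospholipase A2, testing hits that came from an ultra-high-throughput screen for ATG4B inhibitors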
[1] = target: T1, Dual specificity protein phosphatase 3 (Homo sapiens, UniProt P51452); assay: VHR1 phosphatase inhibitors, primary screen, biochemical, absorbance, uHTS (AID 1654)
T1 sequence (P51452 whole entry): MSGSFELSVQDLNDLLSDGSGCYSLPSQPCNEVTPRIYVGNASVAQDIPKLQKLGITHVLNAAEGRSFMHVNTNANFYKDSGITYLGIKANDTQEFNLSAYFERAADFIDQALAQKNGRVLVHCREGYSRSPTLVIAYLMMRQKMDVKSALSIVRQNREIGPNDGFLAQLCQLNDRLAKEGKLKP

Cysteine protease ATG4B = target: T2, Cysteine protease ATG4B (Homo sapiens, UniProt Q9Y4P1); format: functional;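 note: Fluorescence-based dose-response confirmation assay measuring inhibition of ATG4B activity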
T2 sequence (Q9Y4P1 whole entry): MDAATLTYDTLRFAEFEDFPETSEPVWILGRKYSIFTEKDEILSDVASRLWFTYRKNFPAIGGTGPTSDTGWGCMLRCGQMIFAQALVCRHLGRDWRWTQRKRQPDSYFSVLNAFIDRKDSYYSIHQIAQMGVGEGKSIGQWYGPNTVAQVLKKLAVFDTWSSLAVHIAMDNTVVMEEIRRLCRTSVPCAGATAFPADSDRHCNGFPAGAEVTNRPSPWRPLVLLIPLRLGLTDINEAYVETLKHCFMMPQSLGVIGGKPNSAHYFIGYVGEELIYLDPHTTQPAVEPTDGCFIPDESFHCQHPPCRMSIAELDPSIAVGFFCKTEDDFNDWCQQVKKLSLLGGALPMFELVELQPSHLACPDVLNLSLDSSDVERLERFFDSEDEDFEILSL

[2] = target: T3, Carboxy-terminal domain RNA polymerase II polypeptide A small phosphatase 1 (Homo sapiens, UniProt Q9GZU7); assay: CTDSP1 inhibitors, concentration-response, biochemical, absorbance readout, ultra-high-throughput screen actives (AID 540297); format: functional
T3 sequence (Q9GZU7 whole entry): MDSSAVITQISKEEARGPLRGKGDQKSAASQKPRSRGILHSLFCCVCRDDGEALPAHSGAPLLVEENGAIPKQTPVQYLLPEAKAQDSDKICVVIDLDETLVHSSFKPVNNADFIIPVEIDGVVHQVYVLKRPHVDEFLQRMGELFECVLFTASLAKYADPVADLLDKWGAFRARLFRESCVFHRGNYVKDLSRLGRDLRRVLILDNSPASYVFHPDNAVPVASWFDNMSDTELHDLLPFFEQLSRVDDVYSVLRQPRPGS

[3] = target: T1, Dual specificity protein phosphatase 3; assay: VHR1 phosphatase inhibitors, biochemical (AID 1878)
[4] = target: T4, Dual specificity protein phosphatase 6 (Rattus norvegicus, UniProt Q64346); assay: inhibition of rat DUSP6 enzyme activity – biochemical, in vitro, primary screen (AID 425)
T4 sequence (Q64346 whole entry): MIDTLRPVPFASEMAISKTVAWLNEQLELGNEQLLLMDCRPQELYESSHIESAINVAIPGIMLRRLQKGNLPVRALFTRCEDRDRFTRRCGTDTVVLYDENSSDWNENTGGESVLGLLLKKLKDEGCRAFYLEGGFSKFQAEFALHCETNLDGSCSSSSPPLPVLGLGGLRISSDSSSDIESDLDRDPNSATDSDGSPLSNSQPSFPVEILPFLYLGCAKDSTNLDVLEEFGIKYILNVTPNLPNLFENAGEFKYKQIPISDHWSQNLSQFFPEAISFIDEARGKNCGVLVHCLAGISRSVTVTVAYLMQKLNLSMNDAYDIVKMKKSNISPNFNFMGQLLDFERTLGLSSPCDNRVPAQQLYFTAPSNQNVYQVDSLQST

Large T antigen = Large T antigen (Simian virus 40, UniProt P03070); format: functional, Betapolyomavirus macacae;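 note: Confirmatory-stage PubChem screen for compounds that inhibit SV40 T antigen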
Large T antigen, sequence (P03070 whole entry): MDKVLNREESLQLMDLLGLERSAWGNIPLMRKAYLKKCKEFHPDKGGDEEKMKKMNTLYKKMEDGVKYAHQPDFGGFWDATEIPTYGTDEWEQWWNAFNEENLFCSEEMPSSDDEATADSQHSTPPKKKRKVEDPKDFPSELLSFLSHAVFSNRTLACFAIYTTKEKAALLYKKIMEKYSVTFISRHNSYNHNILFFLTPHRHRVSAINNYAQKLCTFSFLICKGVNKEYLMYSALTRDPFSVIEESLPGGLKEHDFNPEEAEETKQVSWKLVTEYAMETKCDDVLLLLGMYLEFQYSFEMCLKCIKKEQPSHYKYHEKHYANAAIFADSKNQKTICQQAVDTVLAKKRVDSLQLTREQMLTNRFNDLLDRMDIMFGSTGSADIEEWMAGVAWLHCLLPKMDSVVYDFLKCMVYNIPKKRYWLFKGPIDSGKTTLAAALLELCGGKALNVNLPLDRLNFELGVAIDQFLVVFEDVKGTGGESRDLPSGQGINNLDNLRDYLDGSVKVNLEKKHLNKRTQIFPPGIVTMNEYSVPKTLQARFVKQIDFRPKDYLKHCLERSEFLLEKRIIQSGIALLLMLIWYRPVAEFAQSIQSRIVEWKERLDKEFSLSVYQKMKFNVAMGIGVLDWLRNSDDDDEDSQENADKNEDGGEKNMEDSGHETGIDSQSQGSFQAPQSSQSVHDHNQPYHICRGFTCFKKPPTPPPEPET

[5] = target: T5, Tyrosine-protein phosphatase non-receptor type 22 (Homo sapiens, UniProt Q9Y2R2); format: functional
T5 sequence (Q9Y2R2 whole entry): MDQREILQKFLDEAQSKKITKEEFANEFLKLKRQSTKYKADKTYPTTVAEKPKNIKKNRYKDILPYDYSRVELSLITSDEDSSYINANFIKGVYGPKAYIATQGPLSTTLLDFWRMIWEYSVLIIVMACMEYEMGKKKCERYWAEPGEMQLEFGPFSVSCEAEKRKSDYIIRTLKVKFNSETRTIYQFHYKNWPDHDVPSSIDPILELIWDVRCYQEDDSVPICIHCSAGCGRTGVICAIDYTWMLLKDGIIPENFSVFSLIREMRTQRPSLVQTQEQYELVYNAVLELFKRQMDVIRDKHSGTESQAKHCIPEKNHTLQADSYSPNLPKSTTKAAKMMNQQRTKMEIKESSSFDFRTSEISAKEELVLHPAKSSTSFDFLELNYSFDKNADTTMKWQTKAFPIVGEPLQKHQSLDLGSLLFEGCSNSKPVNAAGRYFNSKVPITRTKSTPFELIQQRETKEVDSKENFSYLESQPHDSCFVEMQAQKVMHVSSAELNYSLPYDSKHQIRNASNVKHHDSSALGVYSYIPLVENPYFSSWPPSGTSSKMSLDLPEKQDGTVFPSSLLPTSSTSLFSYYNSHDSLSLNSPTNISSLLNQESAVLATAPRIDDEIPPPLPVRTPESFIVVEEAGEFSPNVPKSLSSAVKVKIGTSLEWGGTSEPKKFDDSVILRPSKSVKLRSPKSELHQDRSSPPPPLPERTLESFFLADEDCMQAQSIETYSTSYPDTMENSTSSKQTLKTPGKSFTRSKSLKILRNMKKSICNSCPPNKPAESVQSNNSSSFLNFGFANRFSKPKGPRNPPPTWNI

[6] = target: T5, Tyrosine-protein phosphatase non-receptor type 22; format: functional; remark: listed apart in the source
[7] = target: T6, Tyrosine-protein phosphatase non-receptor type 7 (Homo sapiens, UniProt P35236); format: functional
T6 sequence (P35236 whole entry): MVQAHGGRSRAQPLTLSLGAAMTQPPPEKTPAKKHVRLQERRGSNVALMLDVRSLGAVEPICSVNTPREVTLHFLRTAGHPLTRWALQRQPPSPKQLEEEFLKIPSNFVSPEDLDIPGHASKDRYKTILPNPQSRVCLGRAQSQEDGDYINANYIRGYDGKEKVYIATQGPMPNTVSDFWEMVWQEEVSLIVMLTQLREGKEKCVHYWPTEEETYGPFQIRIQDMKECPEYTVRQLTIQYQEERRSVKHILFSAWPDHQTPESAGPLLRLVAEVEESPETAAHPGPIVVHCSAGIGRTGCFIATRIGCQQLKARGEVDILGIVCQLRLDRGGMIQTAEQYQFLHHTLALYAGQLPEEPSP

[8] = target: T5, Tyrosine-protein phosphatase non-receptor type 22; assay: SAR LYP1 Fluorescent Assay using OMFP substrate for In Vitro dose response studies - Set 3. [Related pubchem assays (depositor defined):AID1779, AID1784, AID2140, AID2686]; format: functional
[9] = target: Tyrosine-protein phosphatase non-receptor type 12 (Homo sapiens, UniProt Q05209); assay: SAR Selectivity Analysis of small molecule inhibitors of PEST using pCAP in a fluorescence assay. [Related pubchem assays (depositor defined):AID1779, AID1784, AID2135]; format: functional
Tyrosine-protein phosphatase non-receptor type 12, sequence (Q05209 whole entry): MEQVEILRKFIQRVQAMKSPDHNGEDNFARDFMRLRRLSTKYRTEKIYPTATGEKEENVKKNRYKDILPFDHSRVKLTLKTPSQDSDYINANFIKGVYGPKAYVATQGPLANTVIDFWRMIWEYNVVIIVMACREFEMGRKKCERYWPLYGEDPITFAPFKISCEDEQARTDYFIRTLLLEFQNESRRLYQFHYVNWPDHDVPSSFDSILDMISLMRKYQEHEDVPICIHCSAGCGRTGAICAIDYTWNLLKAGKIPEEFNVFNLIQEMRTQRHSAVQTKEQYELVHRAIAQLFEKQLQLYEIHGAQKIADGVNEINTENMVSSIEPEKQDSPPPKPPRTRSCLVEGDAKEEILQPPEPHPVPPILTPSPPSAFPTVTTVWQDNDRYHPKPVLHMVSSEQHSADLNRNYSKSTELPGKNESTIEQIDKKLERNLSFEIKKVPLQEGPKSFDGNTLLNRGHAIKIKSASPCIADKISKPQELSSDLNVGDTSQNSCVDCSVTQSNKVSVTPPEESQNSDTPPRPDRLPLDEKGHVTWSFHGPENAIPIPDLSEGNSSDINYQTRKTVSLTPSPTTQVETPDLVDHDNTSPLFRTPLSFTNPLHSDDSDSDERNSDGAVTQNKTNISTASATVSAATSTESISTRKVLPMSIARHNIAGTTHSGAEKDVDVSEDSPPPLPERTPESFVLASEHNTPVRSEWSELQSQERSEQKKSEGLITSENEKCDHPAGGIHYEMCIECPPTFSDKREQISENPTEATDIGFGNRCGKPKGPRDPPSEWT

[10] = target: T5, Tyrosine-protein phosphatase non-receptor type 22; assay: inhibition of lymphoid tyrosine phosphatase LYP – biochemical, pCAP fluorogenic substrate, fluorescence, set 3, SAR follow-up (AID 449727); format: functional
[11] = target: T5, Tyrosine-protein phosphatase non-receptor type 22; assay: SAR LYP1 Fluorescent Assay using OMFP substrate for In Vitro dose response studies - Set 2. [Related pubchem assays (depositor defined):AID1779, AID1784, AID2140, AID449726, AID488869]; format: functional
[12] = target: T6, Tyrosine-protein phosphatase non-receptor type 7; assay: inhibition of hematopoietic tyrosine phosphatase HePTP – biochemical, set 2, SAR follow-up (AID 449736); format: functional
[13] = target: T5, Tyrosine-protein phosphatase non-receptor type 22; assay: SAR LYP1 Fluorescent Assay using pCAP substrate for In Vitro dose response studies - Set 2. [Related pubchem assays (depositor defined):AID1779, AID1784, AID2135, AID449727]; format: functional
Streptococcus = assay: GAS UMAA2166 growth inhibition – luminescence, BacTiterGlo, counter-screen for streptokinase expression inhibitor project, dose response (AID 1915); format: functional, organism-based;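 note: potency for reduction of bacterial viability or growth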
[14] = target: T7, E3 ubiquitin-protein ligase XIAP (Homo sapiens, UniProt P98170); assay: small molecules displacing peptide from XIAP – biochemical, IAP family, fluorescence polarization (AID 1018); format: functional
T7 sequence (P98170 whole entry): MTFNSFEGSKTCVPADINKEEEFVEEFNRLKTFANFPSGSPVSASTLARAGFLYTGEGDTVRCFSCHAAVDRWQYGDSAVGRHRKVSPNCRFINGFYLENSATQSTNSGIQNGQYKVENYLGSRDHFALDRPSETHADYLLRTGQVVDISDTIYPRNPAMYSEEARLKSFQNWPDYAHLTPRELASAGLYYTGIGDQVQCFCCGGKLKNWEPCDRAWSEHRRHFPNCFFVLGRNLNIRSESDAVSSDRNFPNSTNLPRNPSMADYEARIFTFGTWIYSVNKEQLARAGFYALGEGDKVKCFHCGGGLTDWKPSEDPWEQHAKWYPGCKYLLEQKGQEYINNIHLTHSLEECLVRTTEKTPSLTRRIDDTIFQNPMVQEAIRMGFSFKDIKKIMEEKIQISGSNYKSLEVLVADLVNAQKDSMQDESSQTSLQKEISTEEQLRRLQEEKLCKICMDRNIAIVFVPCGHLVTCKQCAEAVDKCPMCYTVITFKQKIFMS

[15] = system: Streptococcus sp. 'group A'; assay: Streptococcus pyogenes SK(-)GAS viability under kanamycin – luminescence, BacTiterGlo, confirmation, counter-screen for streptokinase expression inhibitor project, dose response (AID 1900); format: functional, organism-based
[16] = target: T7, E3 ubiquitin-protein ligase XIAP; assay: Counter Screen using XIAP-Bir3 for Chemical Antagonists of Bir1/2 domains of IAP-family anti-apoptotic proteins. [Related pubchem assays (depositor defined):AID1018, AID1449, AID1514, AID1638, AID1749, AID1750, AID488957, AID488963]
Streptokinase A = target: T8, Streptokinase A (Streptococcus pyogenes serotype M1, UniProt P10520); assay: viability-normalized secreted streptokinase activity reduction – plasminogen activation absorbance, OD405, dose response (AID 1914); format: functional, Streptococcus pyogenes M1 GAS;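 note: secreted streptokinase activity via plasminogen activation per viability signal from cell pellet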
T8 sequence (P10520 whole entry): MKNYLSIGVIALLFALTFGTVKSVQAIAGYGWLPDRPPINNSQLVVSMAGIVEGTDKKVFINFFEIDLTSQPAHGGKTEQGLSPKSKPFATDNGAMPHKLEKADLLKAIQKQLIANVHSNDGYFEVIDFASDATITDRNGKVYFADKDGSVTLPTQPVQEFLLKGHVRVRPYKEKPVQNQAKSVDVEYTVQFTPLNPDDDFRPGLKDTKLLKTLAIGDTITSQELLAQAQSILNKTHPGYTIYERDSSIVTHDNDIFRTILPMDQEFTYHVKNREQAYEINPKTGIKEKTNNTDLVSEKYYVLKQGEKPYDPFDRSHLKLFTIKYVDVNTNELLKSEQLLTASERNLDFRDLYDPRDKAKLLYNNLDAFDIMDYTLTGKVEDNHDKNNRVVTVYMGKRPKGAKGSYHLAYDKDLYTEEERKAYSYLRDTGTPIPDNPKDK

Phospholipase A2, sequence (P04054 whole entry): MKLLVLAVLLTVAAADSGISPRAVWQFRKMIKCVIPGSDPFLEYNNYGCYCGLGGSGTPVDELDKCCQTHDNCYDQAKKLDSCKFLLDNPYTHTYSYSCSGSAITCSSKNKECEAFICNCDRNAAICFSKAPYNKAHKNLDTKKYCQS

**Q.** Which results are given for `O=C(N/N=C/c1ccccc1Cl)c1nc(O)c2cc([N+](=O)[O-])ccc2n1`?
**A.** IC50 (Phospholipase A2): 30.2 µM (inactive); IC50 [1]: 12.8 µM (active); IC50 (Cysteine protease ATG4B): 10.1 µM (active); IC50 [2]: 6.91 µM (active); IC50 [3]: > 158 µM (inactive); IC50 [4]: > 158 µM (not active)

**Q.** Which results are given for `C=CCc1cccc2cc(C(=O)Nc3ccc(S(=O)(=O)Nc4nnc(CC)s4)cc3)c(=O)oc12`?
**A.** IC50 (Large T antigen): 83.2 µM (active); IC50 [5]: 9.43 µM (active); IC50 [6]: 8.58 µM (active); IC50 [7]: 6.18 µM (active)

**Q.** Which results are given for `O=C(O)COc1ccc2c(c1)O/C(=C\c1cccs1)C2=O`?
**A.** IC50 [8]: > 100 µM (inactive); IC50 [9]: > 100 µM (inactive); IC50 [10]: > 100 µM (inactive); IC50 [11]: > 100 µM (inactive); IC50 [12]: > 100 µM (inactive); IC50 [13]: 81.2 µM (active)

**Q.** How did the EC50 (Streptococcus) turn out when `Clc1cc(CSc2ccccc2)nc(-c2ccccc2)n1` was run?
**A.** > 150 µM (not active)

**Q.** And the IC50 [14]?
**A.** > 100 µM (not active)

**Q.** What about the EC50 [15] of the same compound?
**A.** > 150 µM (not active)

**Q.** What about the IC50 [16] of the same compound?
**A.** > 100 µM (inactive)

**Q.** And the EC50 (Streptokinase A)?
**A.** 33.8 µM (active)

**Q.** What about the IC50 [2] of the same compound?
**A.** 14.1 µM (active)
